Test results reported in ChEMBL document CHEMBL5696441 (Nat Chem Biol, 2011).

Assays:
[1] = biological target: Activin receptor type-1 (Homo sapiens) (UniProt Q04771); assay: Inhibition of ACVR1 (unknown origin) assessed as remaining activity at 1 uM by Kinome scan method relative to control
[2] = biological target: Dual specificity protein kinase CLK4 (Homo sapiens) (UniProt Q9HAZ1); assay: Inhibition of CLK4 (unknown origin) assessed as remaining activity at 1 uM by Kinome scan method relative to control
[3] = test system: Epidermal growth factor receptor (Homo sapiens), P00533 [L858R]; assay: Inhibition of EGFR L858R mutant (unknown origin) assessed as remaining activity at 1 uM by Kinome scan method relative to control
[4] = biological target: Mitogen-activated protein kinase 6 (Homo sapiens) (UniProt Q16659); assay: Inhibition of ERK3 (unknown origin) assessed as remaining activity at 1 uM by Kinome scan method relative to control
[5] = test system: Mast/stem cell growth factor receptor Kit (Homo sapiens), P10721 [V559D,V654A]; assay: Inhibition of KIT V559D/V654A mutant (unknown origin) assessed as remaining activity at 1 uM by Kinome scan method relative to control
[6] = biological target: Serine/threonine-protein kinase TBK1 (Homo sapiens) (UniProt Q9UHD2); assay: Inhibition of TBK1 (unknown origin) assessed as remaining activity at 1 uM by Kinome scan method relative to control
[7] = biological target: Tyrosine-protein kinase receptor TYRO3 (Homo sapiens) (UniProt Q06418); assay: Inhibition of TYRO3 (unknown origin) assessed as remaining activity at 1 uM by Kinome scan method relative to control
[8] = biological target: Serine/threonine-protein kinase ULK3 (Homo sapiens) (UniProt Q6PHR2); assay: Inhibition of ULK3 (unknown origin) assessed as remaining activity at 1 uM by Kinome scan method relative to control
[9] = test system: Leucine-rich repeat serine/threonine-protein kinase 2 (Homo sapiens), Q5S007 [I2020T]; assay: Inhibition of human LRRK2 I2020T mutant assessed as residual activity at 1 uM using RBER-CHKtide as substrate in presence of 33P-ATP by ProQinase assay relative to control
[10] = biological target: T1, Serine/threonine-protein kinase Nek1 (Homo sapiens) (UniProt Q96PY6); assay: Inhibition of human NEK1 assessed as residual activity at 1 uM using RBER-CHKtide as substrate in presence of 33P-ATP by ProQinase assay relative to control
T1 sequence (whole entry): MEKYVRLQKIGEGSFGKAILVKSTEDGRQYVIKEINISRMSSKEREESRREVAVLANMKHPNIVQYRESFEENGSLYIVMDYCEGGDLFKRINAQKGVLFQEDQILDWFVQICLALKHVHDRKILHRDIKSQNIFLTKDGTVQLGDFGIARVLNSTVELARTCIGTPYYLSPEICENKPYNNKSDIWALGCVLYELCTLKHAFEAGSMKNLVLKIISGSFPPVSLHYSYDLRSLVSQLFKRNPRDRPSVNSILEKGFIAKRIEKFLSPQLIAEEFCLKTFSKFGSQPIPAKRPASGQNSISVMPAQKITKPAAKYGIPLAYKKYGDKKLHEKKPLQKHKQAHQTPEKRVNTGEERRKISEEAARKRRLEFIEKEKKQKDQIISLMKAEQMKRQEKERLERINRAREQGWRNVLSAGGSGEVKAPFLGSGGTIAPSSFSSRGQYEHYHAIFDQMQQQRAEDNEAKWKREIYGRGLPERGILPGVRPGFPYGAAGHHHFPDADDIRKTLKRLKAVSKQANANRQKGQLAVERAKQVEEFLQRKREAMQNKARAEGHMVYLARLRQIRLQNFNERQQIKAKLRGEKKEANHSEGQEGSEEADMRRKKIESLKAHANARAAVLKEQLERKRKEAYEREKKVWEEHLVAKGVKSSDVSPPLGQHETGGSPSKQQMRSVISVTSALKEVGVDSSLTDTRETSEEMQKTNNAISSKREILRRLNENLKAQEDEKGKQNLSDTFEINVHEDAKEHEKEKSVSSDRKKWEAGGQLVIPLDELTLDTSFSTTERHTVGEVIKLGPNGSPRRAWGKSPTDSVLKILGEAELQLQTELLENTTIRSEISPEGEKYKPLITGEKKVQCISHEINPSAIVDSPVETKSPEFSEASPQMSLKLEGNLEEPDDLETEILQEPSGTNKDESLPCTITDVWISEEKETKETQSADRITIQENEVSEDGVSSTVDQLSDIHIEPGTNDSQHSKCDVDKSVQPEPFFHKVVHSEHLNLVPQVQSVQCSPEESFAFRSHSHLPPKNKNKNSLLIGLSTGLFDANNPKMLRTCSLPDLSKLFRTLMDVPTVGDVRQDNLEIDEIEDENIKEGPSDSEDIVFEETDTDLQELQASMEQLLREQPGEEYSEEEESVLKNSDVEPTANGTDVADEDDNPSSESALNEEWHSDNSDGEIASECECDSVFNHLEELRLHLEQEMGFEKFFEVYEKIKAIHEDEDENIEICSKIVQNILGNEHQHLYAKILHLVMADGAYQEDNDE

[11] = biological target: PAS domain-containing serine/threonine-protein kinase (Homo sapiens) (UniProt Q96RG2); assay: Inhibition of human PASK assessed as residual activity at 1 uM using RBER-CHKtide as substrate in presence of 33P-ATP by ProQinase assay relative to control
[12] = biological target: Ribosomal protein S6 kinase alpha-1 (Homo sapiens) (UniProt Q15418); assay: Inhibition of human RPS6KA1 assessed as residual activity at 1 uM using RBER-CHKtide as substrate in presence of 33P-ATP by ProQinase assay relative to control
[13] = biological target: Tyrosine-protein kinase Yes (Homo sapiens) (UniProt P07947); assay: Inhibition of human YES assessed as residual activity at 1 uM using polyEY as substrate in presence of 33P-ATP by ProQinase assay relative to control
[14] = Anti-inflammatory activity against human derived medium respond PBMC cells assessed as inhibition in stimulated TARC chemokine release incubated for 2 hrs in the presence of LPS/SEB/aCD28 by Luminex based sandwich immunoassay; type: functional, cell-based
[15] = biological target: CYP2C19 (Homo sapiens, UniProt P33261); assay: Inhibition of CYP2C19 (unknown origin) at 10 uM relative to control; type: ADME

PAS domain-containing serine/threonine-protein kinase (Homo sapiens), sequence (Q96RG2 whole entry, the tested form may be a part): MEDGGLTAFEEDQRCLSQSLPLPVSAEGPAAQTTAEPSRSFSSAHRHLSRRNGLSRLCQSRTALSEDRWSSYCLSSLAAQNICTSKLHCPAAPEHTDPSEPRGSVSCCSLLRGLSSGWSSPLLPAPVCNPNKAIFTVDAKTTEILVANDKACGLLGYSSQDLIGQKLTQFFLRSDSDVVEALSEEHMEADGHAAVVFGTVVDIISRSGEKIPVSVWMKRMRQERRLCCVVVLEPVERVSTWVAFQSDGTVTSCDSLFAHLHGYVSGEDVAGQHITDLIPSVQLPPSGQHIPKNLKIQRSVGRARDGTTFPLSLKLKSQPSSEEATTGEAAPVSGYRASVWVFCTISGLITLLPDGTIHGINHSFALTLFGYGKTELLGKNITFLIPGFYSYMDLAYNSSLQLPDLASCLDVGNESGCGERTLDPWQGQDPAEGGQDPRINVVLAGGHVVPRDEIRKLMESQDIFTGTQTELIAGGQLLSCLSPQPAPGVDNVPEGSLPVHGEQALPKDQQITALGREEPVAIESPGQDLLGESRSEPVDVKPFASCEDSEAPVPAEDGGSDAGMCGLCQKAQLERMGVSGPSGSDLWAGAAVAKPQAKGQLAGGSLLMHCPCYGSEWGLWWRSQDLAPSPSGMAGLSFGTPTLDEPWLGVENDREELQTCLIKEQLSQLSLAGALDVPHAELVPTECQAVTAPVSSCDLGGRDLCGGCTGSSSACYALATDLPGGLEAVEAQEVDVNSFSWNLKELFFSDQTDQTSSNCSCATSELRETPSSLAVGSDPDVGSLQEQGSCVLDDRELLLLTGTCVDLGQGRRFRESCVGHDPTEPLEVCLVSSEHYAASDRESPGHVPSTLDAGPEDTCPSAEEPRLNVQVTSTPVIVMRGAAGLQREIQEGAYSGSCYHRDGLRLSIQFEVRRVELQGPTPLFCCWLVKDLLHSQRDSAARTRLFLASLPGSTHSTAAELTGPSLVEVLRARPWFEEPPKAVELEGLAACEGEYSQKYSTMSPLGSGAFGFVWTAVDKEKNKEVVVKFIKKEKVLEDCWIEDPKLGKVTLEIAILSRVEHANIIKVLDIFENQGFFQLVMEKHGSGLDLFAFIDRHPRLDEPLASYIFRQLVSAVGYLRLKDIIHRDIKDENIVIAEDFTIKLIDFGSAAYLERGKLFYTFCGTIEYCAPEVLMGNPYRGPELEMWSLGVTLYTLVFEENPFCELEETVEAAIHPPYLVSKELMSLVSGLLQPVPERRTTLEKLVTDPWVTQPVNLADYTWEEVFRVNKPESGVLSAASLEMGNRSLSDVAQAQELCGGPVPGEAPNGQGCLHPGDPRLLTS
Leucine-rich repeat serine/threonine-protein kinase 2 (Homo sapiens), Q5S007 [I2020T], sequence (Q5S007 whole entry I2020T): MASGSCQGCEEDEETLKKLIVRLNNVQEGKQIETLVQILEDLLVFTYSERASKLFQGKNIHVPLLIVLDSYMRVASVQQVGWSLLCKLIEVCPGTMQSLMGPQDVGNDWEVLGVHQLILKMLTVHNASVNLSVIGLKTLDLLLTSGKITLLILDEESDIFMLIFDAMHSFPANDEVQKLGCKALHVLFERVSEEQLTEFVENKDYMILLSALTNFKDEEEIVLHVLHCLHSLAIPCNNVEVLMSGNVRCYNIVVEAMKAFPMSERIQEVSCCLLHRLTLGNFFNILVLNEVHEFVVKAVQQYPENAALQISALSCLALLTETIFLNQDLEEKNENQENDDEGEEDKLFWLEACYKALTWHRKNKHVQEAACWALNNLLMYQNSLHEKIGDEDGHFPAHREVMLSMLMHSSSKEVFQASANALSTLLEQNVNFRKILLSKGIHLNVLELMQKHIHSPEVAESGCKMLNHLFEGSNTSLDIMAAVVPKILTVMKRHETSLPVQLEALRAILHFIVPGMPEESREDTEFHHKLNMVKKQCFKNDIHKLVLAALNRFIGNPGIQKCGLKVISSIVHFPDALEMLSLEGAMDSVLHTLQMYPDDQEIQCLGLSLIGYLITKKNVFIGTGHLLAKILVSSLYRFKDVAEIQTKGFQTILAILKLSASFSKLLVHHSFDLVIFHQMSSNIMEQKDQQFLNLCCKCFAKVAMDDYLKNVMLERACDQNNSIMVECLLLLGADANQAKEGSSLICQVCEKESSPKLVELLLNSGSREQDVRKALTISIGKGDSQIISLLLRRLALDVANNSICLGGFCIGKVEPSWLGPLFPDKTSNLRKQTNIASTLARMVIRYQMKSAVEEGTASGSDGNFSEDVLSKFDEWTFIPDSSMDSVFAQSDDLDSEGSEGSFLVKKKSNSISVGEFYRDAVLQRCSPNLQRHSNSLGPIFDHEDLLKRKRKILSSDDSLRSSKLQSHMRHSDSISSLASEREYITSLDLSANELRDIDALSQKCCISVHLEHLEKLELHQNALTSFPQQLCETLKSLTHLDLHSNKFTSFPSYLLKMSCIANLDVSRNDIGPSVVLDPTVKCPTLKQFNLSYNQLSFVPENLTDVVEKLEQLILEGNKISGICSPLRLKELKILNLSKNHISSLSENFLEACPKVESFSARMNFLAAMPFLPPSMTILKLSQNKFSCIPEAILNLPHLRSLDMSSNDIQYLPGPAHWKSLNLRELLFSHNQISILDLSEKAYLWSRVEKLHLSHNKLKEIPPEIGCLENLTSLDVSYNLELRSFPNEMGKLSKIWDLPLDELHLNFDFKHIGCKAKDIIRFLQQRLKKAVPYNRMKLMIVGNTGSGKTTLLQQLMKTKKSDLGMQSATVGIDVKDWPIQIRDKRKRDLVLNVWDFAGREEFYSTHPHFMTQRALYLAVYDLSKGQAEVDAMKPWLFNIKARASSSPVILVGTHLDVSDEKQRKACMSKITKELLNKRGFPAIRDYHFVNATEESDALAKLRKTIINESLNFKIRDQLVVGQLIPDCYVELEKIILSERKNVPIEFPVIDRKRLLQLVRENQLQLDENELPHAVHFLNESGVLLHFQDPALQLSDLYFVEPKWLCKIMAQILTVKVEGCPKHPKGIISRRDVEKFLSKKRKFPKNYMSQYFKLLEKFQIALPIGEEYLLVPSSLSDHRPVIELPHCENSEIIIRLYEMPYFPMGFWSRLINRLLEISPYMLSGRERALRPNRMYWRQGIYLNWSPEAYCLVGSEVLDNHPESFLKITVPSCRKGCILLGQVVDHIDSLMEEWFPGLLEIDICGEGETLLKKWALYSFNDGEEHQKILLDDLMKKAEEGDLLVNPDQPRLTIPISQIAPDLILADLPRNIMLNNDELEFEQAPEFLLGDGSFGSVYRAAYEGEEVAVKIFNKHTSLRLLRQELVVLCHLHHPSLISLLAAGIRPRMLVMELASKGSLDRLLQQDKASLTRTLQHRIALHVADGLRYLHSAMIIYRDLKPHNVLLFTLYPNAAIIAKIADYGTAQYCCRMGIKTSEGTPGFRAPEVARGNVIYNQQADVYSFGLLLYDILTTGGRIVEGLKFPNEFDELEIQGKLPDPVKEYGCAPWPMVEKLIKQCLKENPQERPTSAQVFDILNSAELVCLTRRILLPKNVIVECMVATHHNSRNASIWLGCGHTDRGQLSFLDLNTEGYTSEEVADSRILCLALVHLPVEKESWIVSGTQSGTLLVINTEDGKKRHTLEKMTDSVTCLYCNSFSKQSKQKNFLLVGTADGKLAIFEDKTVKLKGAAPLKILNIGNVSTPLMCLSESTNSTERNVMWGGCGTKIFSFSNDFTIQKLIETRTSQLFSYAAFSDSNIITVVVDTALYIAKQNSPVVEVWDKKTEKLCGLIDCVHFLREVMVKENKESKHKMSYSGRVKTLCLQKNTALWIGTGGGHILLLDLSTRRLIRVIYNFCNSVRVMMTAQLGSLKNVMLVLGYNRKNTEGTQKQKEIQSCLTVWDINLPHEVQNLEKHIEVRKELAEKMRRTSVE
Serine/threonine-protein kinase TBK1 (Homo sapiens), sequence (Q9UHD2 whole entry): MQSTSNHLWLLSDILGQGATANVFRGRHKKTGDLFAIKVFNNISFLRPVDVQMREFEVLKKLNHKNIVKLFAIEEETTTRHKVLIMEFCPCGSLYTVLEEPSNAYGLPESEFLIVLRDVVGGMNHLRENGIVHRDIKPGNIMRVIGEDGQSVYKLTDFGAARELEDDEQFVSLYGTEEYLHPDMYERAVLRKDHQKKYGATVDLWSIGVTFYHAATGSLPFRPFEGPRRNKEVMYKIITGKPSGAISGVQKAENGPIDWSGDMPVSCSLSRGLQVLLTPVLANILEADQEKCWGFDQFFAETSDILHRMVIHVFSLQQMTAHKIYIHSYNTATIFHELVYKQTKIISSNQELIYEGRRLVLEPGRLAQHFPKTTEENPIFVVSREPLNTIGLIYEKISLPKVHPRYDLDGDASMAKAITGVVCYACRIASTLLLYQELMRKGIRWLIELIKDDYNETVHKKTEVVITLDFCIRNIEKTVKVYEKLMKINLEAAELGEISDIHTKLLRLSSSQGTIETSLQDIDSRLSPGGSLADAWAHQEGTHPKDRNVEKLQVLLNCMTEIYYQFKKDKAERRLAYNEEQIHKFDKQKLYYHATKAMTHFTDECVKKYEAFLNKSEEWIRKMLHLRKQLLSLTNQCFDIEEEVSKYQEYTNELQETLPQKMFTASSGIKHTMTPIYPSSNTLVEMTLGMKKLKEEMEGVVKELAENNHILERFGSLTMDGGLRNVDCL
Dual specificity protein kinase CLK4 (Homo sapiens), sequence (Q9HAZ1 whole entry, looked up): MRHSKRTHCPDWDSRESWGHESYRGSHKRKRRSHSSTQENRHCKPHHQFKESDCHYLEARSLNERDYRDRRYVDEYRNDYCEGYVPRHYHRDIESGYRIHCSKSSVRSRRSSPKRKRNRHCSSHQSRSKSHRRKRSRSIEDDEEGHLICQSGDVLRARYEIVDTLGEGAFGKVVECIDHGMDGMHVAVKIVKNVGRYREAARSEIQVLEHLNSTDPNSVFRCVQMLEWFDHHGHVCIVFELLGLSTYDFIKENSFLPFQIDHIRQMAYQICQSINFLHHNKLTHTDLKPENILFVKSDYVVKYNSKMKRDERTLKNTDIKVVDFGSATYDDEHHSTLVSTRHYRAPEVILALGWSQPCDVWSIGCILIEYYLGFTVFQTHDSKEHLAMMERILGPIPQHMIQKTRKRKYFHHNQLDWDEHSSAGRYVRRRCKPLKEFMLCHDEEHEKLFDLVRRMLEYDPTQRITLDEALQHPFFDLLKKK

## O=C1c2ccc(Nc3ccc(F)cc3F)cc2CCc2ccc(OC[C@H](O)CO)cc21 [Skepinone-L]
[1]
  Activity: 99%
[2]
  Activity: 100%
[3]
  Activity: 93%
[4]
  Activity: 100%
[5]
  Activity: 100%
[6]
  Activity: 100%
[7]
  Activity: 100%
[8]
  Activity: 100%
[9]
  Activity: 94%
[10]
  Activity: 83%
[11]
  Activity: 88%
[12]
  Activity: 89%
[13]
  Activity: 119%
[14]
  IC50: Not Active
[15]
  inhibition at 10 µM: 42%
